Test results as given in patent EP0082731A1, “The use of peptides as medicaments” (NOVO INDUSTRI A/S, priority 1981, dated 1983).

Columns and labels:
[1] = test system: isolated perfused rat pancreas; experiment: IRI (insulin) release from the isolated perfused rat pancreas
Description: Such a use should be especially safe as no hypoglycaemia will occur during treatment because of the lack of IRI releasing effect in the presence of hypoglycaemia and normoglycaemia.
Furthermore, it is stated therein that compounds of formula I show no or minor, negligible metabolic effects. […] Based thereupon it is surprising that compounds of formula I have an insulin releasing effect on animals primed with glucose corresponding to hyperglycaemia.

rats = experiment: Metabolic effects after administration to normally fasted and fed rats in vivo
rat free fat cells = experiment: Lipolytic effect on rat free fat cells in vitro; assay type: cell-based; settings: compared with glucagon
[2] = test system: isolated perfused rat pancreas; settings: known effect of glucagon; cited from earlier work
Normoglycaemic Rats = experiment: Experiment D: effect on plasma glucose and plasma IRI levels in normoglycaemic rats; assay type: in vivo, Wistar rats; settings: normally fed rats; for Blood glucose / Plasma IRI: i.v. injection at 0 min, equimolar doses (glucagon 1 mg/kg, glucagon(1-21) 0.77 mg/kg), mean, N = 10
Experimental: Glucagon (-1 mg/kg) and an equimolar dosis of glucagon(1-21), i.e. 0.77 mg/kg, were injected intravenously at the beginning time (time: 0 minutes) to normally fed male Wistar rats weighing 150 g (+/- 5 g). Blood samples were taken from the orbital plexus at the times -5, 2, 5, 10, 15, 30, and 60 minutes. Blood glucose was assayed according to the hexokinase method and plasma insulin was assayed by RIA. […] Contrary to glucagon, glucagon(1-21) had no effect on these parameters. Mean blood glucose values (N = 10) are stated in Table VI below, and mean plasma IRI values (N = 10) are stated in Table VII below.

[3] = buffer glucose concentration 2.0 mg/ml
[4] = i.v., glucagon 1 mg/kg, glucagon(1-21) 0.77 mg/kg

With “des-pentapeptide-(22-26)-glucagon [des(22-26)glucagon]” the insulin releasing effect ([1]; at hyperglycaemia) was “have this effect”, the insulin releasing effect [1, 3] was “possesses an insulin releasing effect” and the metabolic effects (rats) was “No metabolic effects have been found”. The lipolytic effect (rat free fat cells) was “negligible”.
For “glucagon(1-26) (HSQGTFTSDYSKYLDSRRAQDFVQWL; Glucagon; UniProt P01275 53-78, looked up, fragment)”, the insulin releasing effect ([1]; at hyperglycaemia) was “have this effect”, the insulin releasing effect [1, 3] was “possesses an insulin releasing effect” and the metabolic effects (rats) was “No metabolic effects have been found”. For the same substance, the lipolytic effect (rat free fat cells) was “negligible”.
In the case of Glucagon [reference compound], the insulin releasing effect ([1]; at hyperglycaemia) is listed as “have this effect”, the insulin releasing effect ([1]; in the presence of normoglycaemia and hypoglycaemia) is listed as “has an insulin releasing effect” and the insulin release [2] is listed as “releases insulin”. The Blood glucose (Normoglycaemic Rats; time 2 min) was 1.2 mg/mL, the “Plasma IRI” value (Normoglycaemic Rats; time 2 min) was 95 µU/ml and the Blood glucose (Normoglycaemic Rats; time 5 min) was 1.3 mg/mL. The “Plasma IRI” value (Normoglycaemic Rats; time 5 min) was 98 µU/ml, the Blood glucose (Normoglycaemic Rats; time 10 min) was 1.3 mg/mL and the “Plasma IRI” value (Normoglycaemic Rats; time 10 min) was 82 µU/ml. The Blood glucose (Normoglycaemic Rats; time 15 min) was 1.4 mg/mL, the “Plasma IRI” value (Normoglycaemic Rats; time 15 min) was 67 µU/ml and the Blood glucose (Normoglycaemic Rats; time 30 min) was 1.5 mg/mL. The “Plasma IRI” value (Normoglycaemic Rats; time 30 min) was 53 µU/ml, the Blood glucose (Normoglycaemic Rats; time 60 min) was 1.1 mg/mL and the “Plasma IRI” value (Normoglycaemic Rats; time 60 min) was 17 µU/ml. The Blood glucose (Normoglycaemic Rats; time -5 min) was 0.9 mg/mL, the “Plasma IRI” value (Normoglycaemic Rats; time -5 min) was 19 µU/ml and the “effect on blood glucose” value (Normoglycaemic Rats; [4]) was “significantly increasing effect”. For the same substance, the “effect on plasma IRI” value (Normoglycaemic Rats; [4]) was “significantly increasing effect”.
